From patent US20240229066A1 (priority 2020, published 2024) come the findings set out here.

SMILES strings stand for the structures. Peptide text beside a SMILES is read from it. * marks the point of attachment. Cbz = O=C(OCc1ccccc1)*; CHN2 = [N-]=[N+]=C*

What all share (format): cell-based, recombinant vesicular stomatitis virus
Assay [1] concerns rVSVs carrying SARS-CoV 2 S.
In another assay the test system is rVSVs bearing EBOV GP.
Assay [2] relates to rVSVs bearing SARS-CoV-2 S.

Regarding `[N-]=[N+]=CC(=O)C(Cc1ccc(O)cc1)NC(=O)C(Cc1ccccc1)NC(=O)OCc1ccccc1` (stereo not drawn) [FYdmk, Z-Phe-tyr-dmk] (Cbz-Phe-Tyr-CHN2; configuration not given here), in assay [1], the “S-mediated entry (infection scored by eGFP expression)” value was “inhibited S-mediated entry” and the “sensitivity of S-mediated entry relative to EBOV GP-dependent entry” value is on record as “reduced sensitivity”.

Regarding `Cl.N` [NH4Cl], in the assay on rVSVs bearing EBOV GP, the “entry by rVSVs bearing EBOV GP (infection scored by eGFP expression)” value was “reduced entry”. In assay [2], the “entry by rVSVs bearing SARS-CoV-2 S (infection scored by eGFP expression)” value was “reduced entry” and the “sensitivity of S-mediated entry compared with entry by EBOV GP” value was “comparatively less sensitive”.
